Laboratory results: PMC3653315 (Biomolecular NMR assignments, 2011)

Biological target: Ssu72 (dSsu72) (Drosophila melanogaster, UniProt Q9VWE4)
Settings: 25 mM Tris-HCl, 25 mM KCl, 2 mM dithiothreitol, 5% D2O, 30 °C; phosphate up to 25:1 molar ratio; active site loop

Chain of Ssu72 (dSsu72) (Q9VWE4 1-195): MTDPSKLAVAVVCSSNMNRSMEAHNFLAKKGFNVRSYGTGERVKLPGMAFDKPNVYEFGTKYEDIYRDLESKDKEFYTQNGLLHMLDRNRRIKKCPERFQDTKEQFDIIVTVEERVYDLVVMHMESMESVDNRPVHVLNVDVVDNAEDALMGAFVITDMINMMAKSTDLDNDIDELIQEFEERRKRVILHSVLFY

With `O=P(O)(O)O` [inorganic phosphate] the “NMR titration, 1H/15N-HSQC-TROSY chemical shift perturbation” value was “large number of significant perturbations upon titration of wild-type Ssu72 with inorganic phosphate”.
